The values that follow come from paper doi:10.1101/2023.04.22.537907v1 (biorxiv, 2023).

In this assay the target is PcVHA-a (vacuolar H+-ATPase subunit a; Pc106526). Briefly: microscale thermophoresis with lysate of mCherry-fusion transformants. The class given is binding, Phytophthora capsici. The following applies: 25 °C; 20% MST power; total protein lysate; mCherry-only control.

On to `O=C(NCc1ncc(C(F)(F)F)cc1Cl)c1c(Cl)cccc1Cl` [fluopicolide], for which the Kd was found to be 17.9 µM.

As a reminder, the Kd is the equilibrium constant for the complex coming apart.
